From ChEMBL document CHEMBL5696442, “Discovery of type II inhibitors of TGFβ-activated kinase 1 (TAK1) and mitogen-activated protein kinase kinase kinase kinase 2 (MAP4K2)” (J Med Chem, 2015) come the findings set out here.

The target of experiment [1] is Macrophage-stimulating protein receptor (Homo sapiens) (UniProt Q04912). As to the kind of experiment: Inhibition of MST1R (unknown origin) at 1 uM by Ambit Kinomescan binding assay relative to control.
Experiment [2] deals with Serine/threonine-protein kinase MARK2 (Homo sapiens) (UniProt Q7KZI7). The experiment in a line: Inhibition of MARK2 (unknown origin) at 1 uM by Ambit Kinomescan binding assay relative to control.
In the next experiment the target is Ephrin type-A receptor 2 (Homo sapiens, UniProt P29317). The experiment in a line: Inhibition of EphA2 ACT labeling site in human A-375 cells at 0.05 uM by KiNativ Profiling analysis relative to control. The experiment is classed as cell-based.
Experiment [3] concerns the target Tyrosine-protein kinase CSK (Homo sapiens, UniProt P41240). The experiment in a line: Inhibition of CSK (unknown origin) at 1 uM by Ambit Kinomescan binding assay relative to control.
Experiment [4] deals with Serine/threonine-protein kinase 38 (Homo sapiens) (UniProt Q15208). The experiment in a line: Inhibition of NDR1 Lys1 labeling site in human A-375 cells at 0.5 uM by KiNativ Profiling analysis relative to control. The format is cell-based.
The target of experiment [5] is Epithelial discoidin domain-containing receptor 1 (Homo sapiens) (UniProt Q08345). The experiment in a line: Inhibition of DDR1 (unknown origin) at 1 uM by Ambit Kinomescan binding assay relative to control; values are per cent of control.
The target in experiment [6] is Myosin-IIIb (Homo sapiens) (UniProt Q8WXR4). As to the kind of experiment: Inhibition of MYO3B (unknown origin) at 10 uM by Ambit Kinomescan binding assay relative to control.
Sequence of Myosin-IIIb (Homo sapiens) (Q8WXR4 whole entry): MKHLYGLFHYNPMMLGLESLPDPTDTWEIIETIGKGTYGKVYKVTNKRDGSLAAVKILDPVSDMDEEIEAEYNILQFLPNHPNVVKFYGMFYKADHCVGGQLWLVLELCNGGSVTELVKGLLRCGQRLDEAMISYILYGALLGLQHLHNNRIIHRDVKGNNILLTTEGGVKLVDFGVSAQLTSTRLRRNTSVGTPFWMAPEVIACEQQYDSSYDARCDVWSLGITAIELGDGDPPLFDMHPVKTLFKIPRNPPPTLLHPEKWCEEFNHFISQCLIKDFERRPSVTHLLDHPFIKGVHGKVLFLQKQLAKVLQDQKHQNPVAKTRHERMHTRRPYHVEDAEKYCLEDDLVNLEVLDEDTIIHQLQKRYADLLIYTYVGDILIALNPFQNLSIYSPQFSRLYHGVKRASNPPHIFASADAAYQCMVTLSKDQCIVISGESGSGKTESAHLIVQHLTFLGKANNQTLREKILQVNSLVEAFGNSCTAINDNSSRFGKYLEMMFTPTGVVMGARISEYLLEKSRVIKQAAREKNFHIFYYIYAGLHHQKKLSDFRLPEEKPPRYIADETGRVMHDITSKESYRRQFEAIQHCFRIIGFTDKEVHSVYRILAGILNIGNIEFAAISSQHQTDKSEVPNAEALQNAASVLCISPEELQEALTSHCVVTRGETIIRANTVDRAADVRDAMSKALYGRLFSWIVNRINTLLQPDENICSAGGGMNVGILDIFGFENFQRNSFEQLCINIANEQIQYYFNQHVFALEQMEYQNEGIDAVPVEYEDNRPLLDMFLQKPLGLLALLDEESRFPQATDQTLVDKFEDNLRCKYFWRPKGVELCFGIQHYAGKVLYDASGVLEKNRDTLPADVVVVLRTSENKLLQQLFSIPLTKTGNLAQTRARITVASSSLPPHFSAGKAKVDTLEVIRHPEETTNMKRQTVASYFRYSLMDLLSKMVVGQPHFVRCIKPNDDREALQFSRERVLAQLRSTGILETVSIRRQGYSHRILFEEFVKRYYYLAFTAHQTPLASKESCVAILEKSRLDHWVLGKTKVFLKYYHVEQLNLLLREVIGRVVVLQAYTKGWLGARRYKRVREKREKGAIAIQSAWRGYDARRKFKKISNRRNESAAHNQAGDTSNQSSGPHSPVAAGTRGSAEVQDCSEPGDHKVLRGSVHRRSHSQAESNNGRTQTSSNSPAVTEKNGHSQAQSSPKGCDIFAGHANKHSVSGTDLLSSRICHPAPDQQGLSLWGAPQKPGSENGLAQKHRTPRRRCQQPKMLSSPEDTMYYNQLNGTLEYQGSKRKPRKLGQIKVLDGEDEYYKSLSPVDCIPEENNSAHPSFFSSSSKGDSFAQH
In experiment [7] the target is Macrophage colony-stimulating factor 1 receptor (Homo sapiens) (UniProt P07333). The experiment in a line: Inhibition of CSF1R (unknown origin) at 10 uM by Ambit Kinomescan binding assay relative to control.
Sequence of Macrophage colony-stimulating factor 1 receptor (Homo sapiens) (P07333 whole entry): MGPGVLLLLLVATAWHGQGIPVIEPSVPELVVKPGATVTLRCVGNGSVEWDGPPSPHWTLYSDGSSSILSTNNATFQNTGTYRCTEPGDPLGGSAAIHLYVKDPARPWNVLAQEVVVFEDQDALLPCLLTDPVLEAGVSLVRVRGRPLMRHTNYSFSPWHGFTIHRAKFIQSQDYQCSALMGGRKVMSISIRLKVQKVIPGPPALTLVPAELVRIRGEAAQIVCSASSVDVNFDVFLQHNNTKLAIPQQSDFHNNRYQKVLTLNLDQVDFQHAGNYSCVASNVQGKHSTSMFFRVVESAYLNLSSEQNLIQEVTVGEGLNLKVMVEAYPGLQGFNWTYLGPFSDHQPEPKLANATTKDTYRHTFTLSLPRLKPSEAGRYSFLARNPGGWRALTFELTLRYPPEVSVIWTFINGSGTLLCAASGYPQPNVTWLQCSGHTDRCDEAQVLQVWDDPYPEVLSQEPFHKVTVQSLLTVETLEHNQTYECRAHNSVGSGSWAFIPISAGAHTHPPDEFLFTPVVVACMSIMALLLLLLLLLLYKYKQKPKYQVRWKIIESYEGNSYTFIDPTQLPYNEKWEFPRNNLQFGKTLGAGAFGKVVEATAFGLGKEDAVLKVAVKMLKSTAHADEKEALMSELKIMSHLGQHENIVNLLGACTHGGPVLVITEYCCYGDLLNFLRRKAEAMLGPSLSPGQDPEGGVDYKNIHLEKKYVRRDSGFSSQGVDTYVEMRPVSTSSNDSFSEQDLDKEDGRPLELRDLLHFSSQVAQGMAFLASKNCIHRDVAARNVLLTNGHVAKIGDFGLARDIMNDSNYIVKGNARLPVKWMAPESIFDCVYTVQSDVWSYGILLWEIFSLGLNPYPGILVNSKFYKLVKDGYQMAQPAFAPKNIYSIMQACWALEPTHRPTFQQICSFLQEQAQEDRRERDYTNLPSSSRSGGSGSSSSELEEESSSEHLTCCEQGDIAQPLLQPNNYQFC
The target in experiment [8] is Serine/threonine-protein kinase 38-like (Homo sapiens) (UniProt Q9Y2H1). The experiment in a line: Inhibition of NDR2 Lys1 labeling site harbouring KDTGHIYAMKILR in human A-375 cells at 0.5 uM by KiNativ Profiling analysis relative to control. The experiment is classed as cell-based.
Sequence of Serine/threonine-protein kinase 38-like (Homo sapiens) (Q9Y2H1 2-464 limits assumed): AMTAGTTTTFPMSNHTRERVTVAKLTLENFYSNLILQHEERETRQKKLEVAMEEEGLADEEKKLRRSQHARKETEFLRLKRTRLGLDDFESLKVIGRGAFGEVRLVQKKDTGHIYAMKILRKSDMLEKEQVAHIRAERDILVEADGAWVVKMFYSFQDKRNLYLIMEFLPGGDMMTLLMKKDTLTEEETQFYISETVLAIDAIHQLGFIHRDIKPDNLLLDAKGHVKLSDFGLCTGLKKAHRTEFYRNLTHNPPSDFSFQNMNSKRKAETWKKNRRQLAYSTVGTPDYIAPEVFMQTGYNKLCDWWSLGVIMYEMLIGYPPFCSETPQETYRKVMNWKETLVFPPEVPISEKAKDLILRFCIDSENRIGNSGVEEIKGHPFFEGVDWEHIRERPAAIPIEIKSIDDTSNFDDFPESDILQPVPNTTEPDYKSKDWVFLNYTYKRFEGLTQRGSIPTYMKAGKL
The subject of experiment [9] is Fibroblast growth factor receptor 3 (Homo sapiens), P22607 [G697C]. The experiment in a line: Inhibition of FGFR3 G697C mutant (unknown origin) at 10 uM by Ambit Kinomescan binding assay relative to control.
For experiment [10], the target named is MAP kinase-interacting serine/threonine-protein kinase 2 (Homo sapiens) (UniProt Q9HBH9). The experiment in a line: Inhibition of MKNK2 (unknown origin) at 10 uM by Ambit Kinomescan binding assay relative to control.
Sequence of MAP kinase-interacting serine/threonine-protein kinase 2 (Homo sapiens) (Q9HBH9 whole entry, looked up): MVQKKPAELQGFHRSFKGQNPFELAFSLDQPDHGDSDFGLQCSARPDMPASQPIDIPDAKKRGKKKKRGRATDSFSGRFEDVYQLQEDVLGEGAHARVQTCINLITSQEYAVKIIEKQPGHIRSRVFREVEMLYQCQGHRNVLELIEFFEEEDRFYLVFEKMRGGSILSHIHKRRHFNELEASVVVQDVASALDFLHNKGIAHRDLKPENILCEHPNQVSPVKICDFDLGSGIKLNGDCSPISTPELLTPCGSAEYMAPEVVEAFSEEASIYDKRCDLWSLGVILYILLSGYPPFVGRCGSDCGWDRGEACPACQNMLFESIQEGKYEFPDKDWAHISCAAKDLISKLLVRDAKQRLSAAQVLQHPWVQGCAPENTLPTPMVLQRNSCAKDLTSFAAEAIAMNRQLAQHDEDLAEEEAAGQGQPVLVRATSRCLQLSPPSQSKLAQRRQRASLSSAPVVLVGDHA
For experiment [11], the target named is T1, Acylglycerol kinase, mitochondrial (Homo sapiens) (UniProt Q53H12).
T1 sequence (whole entry): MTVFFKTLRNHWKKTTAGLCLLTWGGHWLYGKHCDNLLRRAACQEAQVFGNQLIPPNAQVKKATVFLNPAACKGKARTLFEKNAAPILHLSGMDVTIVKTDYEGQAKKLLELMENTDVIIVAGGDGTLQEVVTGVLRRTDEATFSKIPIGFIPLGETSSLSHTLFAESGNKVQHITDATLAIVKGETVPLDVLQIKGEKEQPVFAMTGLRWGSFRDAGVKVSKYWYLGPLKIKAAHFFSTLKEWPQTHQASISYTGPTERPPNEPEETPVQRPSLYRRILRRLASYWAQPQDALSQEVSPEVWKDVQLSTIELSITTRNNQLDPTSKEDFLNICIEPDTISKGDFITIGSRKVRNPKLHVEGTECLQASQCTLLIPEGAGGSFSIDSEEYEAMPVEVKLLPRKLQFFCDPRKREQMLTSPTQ
The experiment in a line: Inhibition of AGK ATP labeling site in human Huh-7 cells at 10 uM by KiNativ Profiling analysis relative to control. The experiment is classed as cell-based.

Experiment [12] has as its target Tyrosine-protein kinase HCK (Homo sapiens) (UniProt P08631). The experiment in a line: Inhibition of HCK (unknown origin) at 10 uM by Ambit Kinomescan binding assay relative to control; values are per cent of control.
In experiment [13] the target is Tyrosine-protein kinase Lck (Homo sapiens) (UniProt P06239). As to the kind of experiment: Inhibition of LCK (unknown origin) at 10 uM by Ambit Kinomescan binding assay relative to control.
Experiment [14] concerns the target Serine/threonine-protein kinase 25 (Homo sapiens) (UniProt O00506). The experiment in a line: Inhibition of YSK1 (unknown origin) at 10 uM by Ambit Kinomescan binding assay.
In experiment [15] the test system is eIF-2-alpha kinase GCN2 (Homo sapiens), Q9P2K8 [S808G]. As to the kind of experiment: Inhibition of GCN2 kinase domain S808G mutant (unknown origin) at 10 uM by Ambit Kinomescan binding assay.
Experiment [16] concerns the target Rho-associated protein kinase (Homo sapiens) (UniProt O75116+Q13464). The experiment in a line: Inhibition of ROCK1/2 K2 labeling site in human Huh-7 cells at 1 uM by KiNativ Profiling analysis relative to control. The format is cell-based.
Experiment [17] deals with Ephrin type-A receptor 6 (Homo sapiens) (UniProt Q9UF33). As to the kind of experiment: Inhibition of EPHA6 (unknown origin) at 10 uM by Ambit Kinomescan binding assay.
For experiment [18], the target named is 5'-AMP-activated protein kinase catalytic subunit alpha-2 (Homo sapiens) (UniProt P54646). The experiment in a line: Inhibition of AMPK-alpha2 (unknown origin) at 10 uM by Ambit Kinomescan binding assay.
The target in experiment [19] is Cyclin-dependent kinase 17 (Homo sapiens) (UniProt Q00537). The experiment in a line: Inhibition of PCTAIRE2 Lys1 labeling site harbouring SKLTENLVALKEIR in human A-375 cells at 0.05 uM by KiNativ Profiling analysis relative to control. The experiment is classed as cell-based.
Experiment [20] concerns the target Phosphatidylinositol 4-kinase type 2-beta (Homo sapiens) (UniProt Q8TCG2). The experiment in a line: Inhibition of PI4K2B ATP labeling site in human Huh-7 cells at 1 uM by KiNativ Profiling analysis relative to control. The format is cell-based.
The target in experiment [21] is Cyclin-dependent kinase 1 (Homo sapiens) (UniProt P06493). The experiment in a line: Inhibition of CDC2 Lys1 labeling site in human Huh-7 cell lysate at 1 uM by KiNativ Profiling analysis relative to control. The format is subcellular.

Structures are written as SMILES. The source made the active and inactive calls. The calls are words filed in the database; no cut-off is given here.

Sequence of Fibroblast growth factor receptor 3 (Homo sapiens), P22607 [G697C] (P22607 whole entry G697C): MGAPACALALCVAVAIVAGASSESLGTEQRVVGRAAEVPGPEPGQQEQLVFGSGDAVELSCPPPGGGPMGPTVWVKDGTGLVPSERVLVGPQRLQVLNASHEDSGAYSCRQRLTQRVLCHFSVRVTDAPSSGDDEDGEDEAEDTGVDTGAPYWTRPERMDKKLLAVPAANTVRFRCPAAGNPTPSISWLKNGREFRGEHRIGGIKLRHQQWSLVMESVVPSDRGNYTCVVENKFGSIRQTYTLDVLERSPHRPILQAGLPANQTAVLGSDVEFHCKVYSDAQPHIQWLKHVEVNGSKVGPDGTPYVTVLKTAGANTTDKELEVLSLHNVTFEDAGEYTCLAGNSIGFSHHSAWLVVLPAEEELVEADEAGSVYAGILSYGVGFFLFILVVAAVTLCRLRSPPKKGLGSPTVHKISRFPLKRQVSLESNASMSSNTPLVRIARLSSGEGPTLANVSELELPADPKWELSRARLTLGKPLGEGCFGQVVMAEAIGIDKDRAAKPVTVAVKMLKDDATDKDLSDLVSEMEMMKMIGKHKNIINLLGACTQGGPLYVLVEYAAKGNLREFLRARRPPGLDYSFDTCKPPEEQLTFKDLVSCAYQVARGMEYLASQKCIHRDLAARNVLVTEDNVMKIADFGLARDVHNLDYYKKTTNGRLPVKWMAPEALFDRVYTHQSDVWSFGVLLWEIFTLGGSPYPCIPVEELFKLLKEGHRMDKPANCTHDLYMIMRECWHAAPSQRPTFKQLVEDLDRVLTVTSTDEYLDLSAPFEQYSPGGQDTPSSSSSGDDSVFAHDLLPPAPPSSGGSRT
Sequence of Tyrosine-protein kinase HCK (Homo sapiens) (P08631 2-526 limits assumed): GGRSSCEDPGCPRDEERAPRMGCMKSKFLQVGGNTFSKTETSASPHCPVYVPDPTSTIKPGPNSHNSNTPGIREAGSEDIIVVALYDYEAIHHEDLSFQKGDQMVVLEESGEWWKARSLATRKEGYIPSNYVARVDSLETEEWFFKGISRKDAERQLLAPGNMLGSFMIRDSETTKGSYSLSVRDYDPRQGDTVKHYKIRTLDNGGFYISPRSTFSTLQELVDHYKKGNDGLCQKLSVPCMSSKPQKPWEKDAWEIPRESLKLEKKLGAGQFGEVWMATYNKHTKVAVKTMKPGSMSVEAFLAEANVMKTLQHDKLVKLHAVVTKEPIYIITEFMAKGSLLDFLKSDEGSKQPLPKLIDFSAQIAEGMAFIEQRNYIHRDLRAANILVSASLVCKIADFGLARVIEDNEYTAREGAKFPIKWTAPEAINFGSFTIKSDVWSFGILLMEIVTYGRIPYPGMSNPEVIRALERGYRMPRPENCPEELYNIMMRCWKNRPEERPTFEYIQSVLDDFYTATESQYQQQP
Sequence of Serine/threonine-protein kinase 25 (Homo sapiens) (O00506 whole entry, looked up, the tested form may be a part): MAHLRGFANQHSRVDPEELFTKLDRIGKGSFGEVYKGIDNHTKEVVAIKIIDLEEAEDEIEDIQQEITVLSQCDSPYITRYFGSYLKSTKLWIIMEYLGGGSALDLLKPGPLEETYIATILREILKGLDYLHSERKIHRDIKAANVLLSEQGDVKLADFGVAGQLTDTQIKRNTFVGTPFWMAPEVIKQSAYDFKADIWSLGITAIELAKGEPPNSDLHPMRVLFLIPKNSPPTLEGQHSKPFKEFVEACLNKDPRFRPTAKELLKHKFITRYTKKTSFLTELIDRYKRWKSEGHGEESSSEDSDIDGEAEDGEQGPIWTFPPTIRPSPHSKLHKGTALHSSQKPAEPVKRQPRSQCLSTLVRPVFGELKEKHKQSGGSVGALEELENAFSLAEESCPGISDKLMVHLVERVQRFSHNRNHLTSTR

Consider `CCN1CCN(Cc2ccc(NC(=O)c3ccc(C)c(/C=C/c4cnc5[nH]ccc5c4OC)c3)cc2C(F)(F)F)CC1`, for which the inhibition (usually the drop in the measured response relative to a control, in per cent) in [1] was 81%; in experiment [2], 59%; against Ephrin type-A receptor 2, 83.7%; in experiment [3], 2%; in experiment [4], -0.8%. The compound also gave a % of control in [5] of 0.05%.
`CCN1CCN(Cc2ccc(NC(=O)c3ccc(C)c(Oc4ccnc5[nH]ccc45)c3)cc2C(F)(F)F)CC1`: the inhibition in experiment [6] came out at 4.8%; in experiment [7] it was 0%; in [8] it was 31.6%; in experiment [9] it was 16%; in experiment [13] it was 0.8%; in [16], 13.7%. In [19], the inhibition was determined as 2.5%. Moreover, the inhibition entry in [10], in [11], in [14], in [15], in [17] and in experiment [18] was “inactive” throughout. Also, the percent of control in experiment [12] came to 0.4%.
Consider `CNc1cc(Oc2cc(C(=O)Nc3cc(N4CCN(C)CC4)cc(C(F)(F)F)c3)ccc2C)ncn1`, for which the values for the inhibition in experiment [20] and in experiment [21] were 16% and 21.5%, respectively.
